Test results: the supplement of paper PMC10307832

Tests used:
Assay in all cases: relative viability (nuclei count vs DMSO), 5 days (fraction); higher = more cells survive
Everolimus + Palbociclib = compound: CO[C@H]1C[C@@H]2CC[C@@H](C)[C@@](O)(O2)C(=O)C(=O)N2CCCC[C@H]2C(=O)O[C@H]([C@H](C)C[C@@H]2CC[C@@H](OCCO)[C@H](OC)C2)CC(=O)[C@H](C)/C=C(\C)[C@@H](O)[C@@H](OC)C(=O)[C@H](C)C[C@H](C)/C=C/C=C/C=C/1C [Everolimus] + CC(=O)c1c(C)c2cnc(Nc3ccc(N4CCNCC4)cn3)nc2n(C2CCCC2)c1=O [Palbociclib] (partner 0.5 µM)
Outline: (§1)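 A single step with final 0.05% Triton X-100, 1% formaldehyde and 1 ug/ml Hoechst fixed the cells and stained nuclei 5 days after treatment. Lung cancer cell lines in 1536-well plates had been treated by pin tool the day after seeding with one drug alone or a fixed anchor-drug dose plus five library-drug doses (not always all listed) in √10 steps, and nuclei were counted on 4× images. Relative viability is the ratio of nuclei in treated wells to nuclei in vehicle wells, taken as the median of duplicate plates.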

Everolimus + Bortezomib = compound: CO[C@H]1C[C@@H]2CC[C@@H](C)[C@@](O)(O2)C(=O)C(=O)N2CCCC[C@H]2C(=O)O[C@H]([C@H](C)C[C@@H]2CC[C@@H](OCCO)[C@H](OC)C2)CC(=O)[C@H](C)/C=C(\C)[C@@H](O)[C@@H](OC)C(=O)[C@H](C)C[C@H](C)/C=C/C=C/C=C/1C [Everolimus] + CC(C)C[C@H](NC(=O)[C@H](Cc1ccccc1)NC(=O)c1cnccn1)B(O)O [Bortezomib] (partner 0.002 µM)
Outline: as §1

Everolimus + Foretinib = compound: CO[C@H]1C[C@@H]2CC[C@@H](C)[C@@](O)(O2)C(=O)C(=O)N2CCCC[C@H]2C(=O)O[C@H]([C@H](C)C[C@@H]2CC[C@@H](OCCO)[C@H](OC)C2)CC(=O)[C@H](C)/C=C(\C)[C@@H](O)[C@@H](OC)C(=O)[C@H](C)C[C@H](C)/C=C/C=C/C=C/1C [Everolimus] + COc1cc2c(Oc3ccc(NC(=O)C4(C(=O)Nc5ccc(F)cc5)CC4)cc3F)ccnc2cc1OCCCN1CCOCC1 [Foretinib] (partner 0.25 µM)
Outline: as §1

Everolimus + Pictilisib = compound: CO[C@H]1C[C@@H]2CC[C@@H](C)[C@@](O)(O2)C(=O)C(=O)N2CCCC[C@H]2C(=O)O[C@H]([C@H](C)C[C@@H]2CC[C@@H](OCCO)[C@H](OC)C2)CC(=O)[C@H](C)/C=C(\C)[C@@H](O)[C@@H](OC)C(=O)[C@H](C)C[C@H](C)/C=C/C=C/C=C/1C [Everolimus] + CS(=O)(=O)N1CCN(Cc2cc3nc(-c4cccc5[nH]ncc45)nc(N4CCOCC4)c3s2)CC1 [Pictilisib] (partner 1 µM)
Outline: as §1

| Cell Line | relative viability (Everolimus + Palbociclib; first compound 0.01 µM) | relative viability (Everolimus + Palbociclib; first compound 0.03162 µM) | relative viability (Everolimus + Palbociclib; first compound 0.1 µM) | relative viability (Everolimus + Palbociclib; first compound 0.3162 µM) | relative viability (Everolimus + Palbociclib; first compound 1 µM) | relative viability (Everolimus + Bortezomib; first compound 0.01 µM) | relative viability (Everolimus + Bortezomib; first compound 0.03162 µM) | relative viability (Everolimus + Bortezomib; first compound 0.1 µM) | relative viability (Everolimus + Bortezomib; first compound 0.3162 µM) | relative viability (Everolimus + Bortezomib; first compound 1 µM) | relative viability (Everolimus + Foretinib; first compound 0.01 µM) | relative viability (Everolimus + Foretinib; first compound 0.03162 µM) | relative viability (Everolimus + Foretinib; first compound 0.1 µM) | relative viability (Everolimus + Foretinib; first compound 0.3162 µM) | relative viability (Everolimus + Foretinib; first compound 1 µM) | relative viability (Everolimus + Pictilisib; first compound 0.01 µM) | relative viability (Everolimus + Pictilisib; first compound 0.03162 µM) | relative viability (Everolimus + Pictilisib; first compound 0.1 µM) | relative viability (Everolimus + Pictilisib; first compound 0.3162 µM) | relative viability (Everolimus + Pictilisib; first compound 1 µM) |
| --- | --- | --- | --- | --- | --- | --- | --- | --- | --- | --- | --- | --- | --- | --- | --- | --- | --- | --- | --- | --- |
| HCC-15 | 0.73 | 0.79 | 0.627 | 0.697 | 0.76 | 1.01 | 1.09 | 0.968 | 1.06 | 1.07 | 1.15 | 1.03 | 1.01 | 0.964 | 0.985 | 0.633 | 0.517 | 0.372 | 0.539 | 0.545 |
| HCC-78 | 0.477 | 0.489 | 0.513 | 0.485 | 0.379 | 0.428 | 0.375 | 0.384 | 0.371 | 0.314 | 0.496 | 0.477 | 0.447 | 0.51 | 0.391 | 0.193 | 0.19 | 0.201 | 0.185 | 0.16 |
| HCC-366 | 0.337 | 0.156 | 0.216 | 0.207 | 0.106 | 1.02 | 1.07 | 0.983 | 0.878 | 0.772 | 0.794 | 0.888 | 0.873 | 0.866 | 0.869 | 0.116 | 0.0953 | 0.131 | 0.11 | 0.138 |
| HCC-827 | 0.459 | 0.409 | 0.331 | 0.479 | 0.277 | 0.995 | 1.19 | 1.07 | 1.16 | 1.09 | 0.929 | 0.982 | 0.906 | 0.828 | 0.771 | 0.957 | 0.875 | 0.781 | 0.863 | 0.611 |
| HOP-62 | 0.418 | 0.304 | 0.268 | 0.294 | 0.268 | 0.493 | 0.662 | 0.399 | 0.489 | 0.574 | 0.903 | 0.835 | 0.776 | 0.731 | 0.779 | 0.326 | 0.274 | 0.17 | 0.267 | 0.352 |
| LC-2-ad | 0.543 | 0.572 | 0.564 | 0.561 | 0.475 | 1.05 | 1.1 | 0.997 | 0.943 | 1 | 0.741 | 0.659 | 0.703 | 0.674 | 0.693 | 0.456 | 0.372 | 0.386 | 0.282 | 0.283 |
| LCLC-97TM1 | 0.225 | 0.217 | 0.159 | 0.164 | 0.173 | 0.607 | 0.489 | 0.525 | 0.246 | 0.495 | 0.833 | 0.562 | 0.915 | 0.904 | 0.862 | 0.126 | 0.123 | 0.128 | 0.135 | 0.144 |
| LCLC-103H | 0.511 | 0.49 | 0.465 | 0.453 | 0.546 | 1.06 | 1.01 | 1.02 | 1.07 | 0.749 | 0.597 | 0.572 | 0.522 | 0.545 | 0.574 | 0.512 | 0.459 | 0.471 | 0.479 | 0.466 |
| LOU-NH91 | 0.533 | 0.561 | 0.55 | 0.54 | 0.547 | 0.504 | 0.521 | 0.488 | 0.521 | 0.518 | 0.853 | 0.793 | 0.712 | 0.746 | 0.691 | 0.516 | 0.484 | 0.462 | 0.485 | 0.465 |
| LU99A | 0.242 | 0.237 | 0.234 | 0.203 | 0.243 | 0.647 | 0.599 | 0.543 | 0.568 | 0.614 | 0.52 | 0.565 | 0.525 | 0.519 | 0.605 | 0.213 | 0.212 | 0.212 | 0.194 | 0.249 |
| LXF-289 | 0.583 | 0.542 | 0.504 | 0.504 | 0.476 | 0.976 | 1.01 | 0.987 | 1.03 | 1.01 | 1.03 | 1 | 0.936 | 0.99 | 1 | 0.579 | 0.624 | 0.513 | 0.555 | 0.509 |
| NCI-H23 | 0.261 | 0.272 | 0.317 | 0.232 | 0.252 | 0.497 | 0.471 | 0.334 | 0.565 | 0.555 | 0.751 | 0.654 | 0.527 | 0.529 | 0.517 | 0.334 | 0.268 | 0.216 | 0.312 | 0.344 |
| NCI-H322M | 0.473 | 0.454 | 0.409 | 0.47 | 0.424 | 0.974 | 0.995 | 1.01 | 0.939 | 0.948 | 0.695 | 0.655 | 0.666 | 0.78 | 0.73 | 0.445 | 0.445 | 0.352 | 0.429 | 0.397 |
| NCI-H441 | 0.204 | 0.188 | 0.153 | 0.222 | 0.207 | 0.364 | 0.497 | 0.504 | 0.457 | 0.506 | 0.972 | 0.863 | 0.726 | 0.833 | 0.659 | 0.272 | 0.358 | 0.296 | 0.282 | 0.331 |
